“Also recorded” adds a separate entry of the source.
Legend:
[1] = tested on: primary cultured neuronal cells; assay: LDH release assay, primary cultured neurons challenged with gp120/Tat and IFN-γ; type: cell-based, mouse; conditions: for Neuronal injury, LDH release: JAK inhibitor 50 nM, IFN-γ 100 U/ml with gp120 or Tat 250 ng/ml; for Neuronal injury, LDH release / LDH release: 12 h
Procedure: (§1) Primary cultures of mouse cortical neurons were prepared as described previously (Chin et al., 1997). Briefly, neuronal cells were isolated from newborn C57BL16 mice and seeded in 6-well tissue-culture plates at 2×10^5 cells/well for 48 h. […] In addition, to test whether EGCG could inhibit JAK/STAT1 signaling and neuronal damage induced by gp120 or/and Tat in the presence of IFN-γ, EGCG was also employed as the co-treatment. Cell culture supernatants were used for LDH assay while cell lysates were used for Western blot analysis of Bcl-xL and Bax proteins.
(§2) Normal C57BL/6 primary cultured neuronal cells as well as STAT1-deficient primary neuronal cells were isolated and cultured as described previously (Chin et al., 1997). Normal cells were co-treated with either gp120 or Tat (250 ng/ml) with or without IFN-γ (100 U/ml) and/or JAK inhibitor (50 nM). STAT1-deficient cells were treated with HIV-1 gp120 or HIV-1 Tat (250 ng/ml) in the presence or absence of IFN-γ (100 U/ml) for 12 h. At the end of the treatment period, neuronal cells were washed in ice-cold PBS three times and lysed in ice-cold lysis buffer. After incubation for 30 mm on ice, samples were centrifuged at high speed for 15 mm, and supernatants were collected. Total protein content was estimated by using the Bio-Rad protein assay. For phosphorylation of JAK1, membranes were first hybridized with phosphospecific Tyr1022/1023 JAK1 antibody (Cell Signaling Technology, Beverly, Mass.) and then stripped and finally analyzed by total JAK1. For STAT1 phosphorylation, membranes were probed with a phospho-Ser727 STAT1 antibody (Cell Signaling Technology), stripped with stripping solution, and then re-probed with an antibody that recognizes total STAT1 (Cell Signaling Technology). Alternatively, membranes with identical samples were probed either with phospho-JAK or STAT1 or with an antibody that recognizes total JAK or STAT1. Immunoblotting was performed with a primary antibody, followed by an anti-rabbit HRP-conjugated IgG secondary antibody as a tracer. After being washed in TBS, the membranes were incubated in the luminol reagent and exposed to film.
LOU release assay (Promega, Madison, Wis.) was performed as previously described (Tan et al., 2002). Briefly, after treatment at a variety of conditions, cell cultured media were collected for LOU release assay. Total LDH release was represent maximal lysis of target cells with 5% Triton X-100. Data are presented as mean±SD of LOU release.

[2] = tested on: primary cultured neuronal cells; assay: Western blot band density ratio of Bcl-xL to Bax in primary neuron lysates; type: cell-based, mouse; conditions: 12 h; for Neuronal injury, Western blot band density ratio of Bcl-xL to Bax: JAK inhibitor 50 nM, IFN-γ 100 U/ml with gp120 or Tat 250 ng/ml
Procedure: as §1, §2
Western blot was performed as described previously (Tan et al., 2002). Briefly, for the in vivo studies left hemispheres of mouse brains were lysed in ice-cold lysis buffer and an aliquot corresponding to 50 μg of total protein was electrophoretically separated using 16.5% Tris-tricine gels. Electrophoresed proteins were then transferred to PVDF membranes (BioRad), washed in dH2O, and blocked for 1 h at ambient temperature in Tris-buffered saline containing 5% (w/v) nonfat dry milk. […] Densitometric analysis was done using the Fluor-S MultiImager™ with Quantity One™ software (Bio-Rad). […]

C57BL/6 mice [3] = assay: In vivo neurotoxicity, NeuN staining of cortical brain sections after i.c.v. injection; parameters: species or system mouse; conditions: 24 h
Excerpt: (§3) Animals were anesthetized using isoflurane (chamber induction at 4-5% isoflurane, intubation and maintenance at 1-2%). After reflexes were checked to ensure that mice were unconscious, they were positioned on a stereotaxic frame (Stoelting Lab Standard) with ear-bars positioned and jaws fixed to a biting plate. The axis coordinates were taken from a mouse brain atlas, and a 5-mm sterile plastic guide cannula (21 GA; Plastic One, Inc., Roanoke, Va.) was implanted into the left lateral ventricle delimited from the stereotaxic coordinates (coordinates relative to bregma: −0.6 mm anterior/posterior, +1.2 mm medial/lateral, and −3.0 mm dorsal/ventral) using the stereotaxic device (Stoelting Lab Standard) and an attached probe (cannula) holder. IFN-γ (200 U/mouse) with HIV-1 protein gp120 (500 ng/mouse) or Tat (500 ng/mouse) or PBS (10 μl) was administered at the rate of 1 μl/min using a Hamilton syringe (modified with a solder stop to prevent over insertion of the needle) through the implanted cannula. […]
At sacrifice, mice were anesthetized with isofluorane and transcardially perfused with ice-cold physiological saline containing heparin (10 U/ml). […] After another cycle of washing, floating sections were mounted onto slides, dehydrated and coverslipped with Vectashield fluorescence mounting media (Vector Labs., Burlingame, Calif.). […]

JAK1 = JAK1 phosphorylation by Western blot in primary cultured neurons; type: cell-based, mouse
Procedure: as §2, with “Alternatively, membranes with identical samples were probed either with phospho-JAK or STAT1 or with an antibody that recognizes total JAK or STAT1. Immunoblotting was performed with a primary antibody, followed by an anti-rabbit HRP-conjugated IgG secondary antibody as a tracer. After being washed in TBS, the membranes were incubated in the luminol reagent and exposed to film.” left out
(§4) Western blot was performed as described previously (Tan et al., 2002). […] Densitometric analysis was done using the Fluor-S MultiImager™ with Quantity One™ software (Bio-Rad). […]

STAT1 = STAT1 phosphorylation by Western blot in primary cultured neurons; type: cell-based, mouse
Procedure: as §2, with “Alternatively, membranes with identical samples were probed either with phospho-JAK or STAT1 or with an antibody that recognizes total JAK or STAT1. Immunoblotting was performed with a primary antibody, followed by an anti-rabbit HRP-conjugated IgG secondary antibody as a tracer. After being washed in TBS, the membranes were incubated in the luminol reagent and exposed to film.” left out
as §4

C57BL/6 mice [4] = assay: In vivo neurotoxicity, Bcl-xL/Bax Western blot of brain homogenates; parameters: species or system mouse; conditions: 24 h
Excerpt: as §3, with “cannula. Correctness of the injection was confirmed by trypan blue dye administration and histological examination. The wounds were closed with 1-2 staples and mice were all observed until anesthesia had cleared.” for “cannula.”
as §4

[5] = IFN-γ 100 U/ml, time-dependently
[6] = IFN-γ 100 U/ml added to gp120 or Tat 250 ng/ml
[7] = EGCG 50 mg/kg i.p., i.c.v. IFN-γ/gp120 or IFN-γ/gp120/Tat
[8] = EGCG at a range of doses co-incubated with IFN-γ 100 U/ml, 60 min
[9] = EGCG 20 μM, gp120 or Tat 500 ng/ml with IFN-γ 100 U/ml

Compound: CC(C)(C)c1nc2c3ccc(F)cc3c3c(=O)[nH]ccc3c2[nH]1 [JAK inhibitor, 2-(1,1-Dimethylethyl)-9-fluoro-3,6-dihydro-7H-benz[h] -imidaz[4,5-f] isoquinolin-7-one]
- Cell death and apoptosis indicators (LDH, Bcl-xL/Bax) versus control treatment group ([1]; JAK1 inhibitor, combination of gp120 and Tat included in the treatment): did not return to baseline levels
- Neuronal injury, LDH release [1]: significantly inhibited
- Neuronal injury, LDH release ([1]; listed as JAK1 inhibitor): greatly reduced
- Neuronal injury, Western blot band density ratio of Bcl-xL to Bax [2]: significantly inhibited
- Neuronal injury, Western blot band density ratio of Bcl-xL to Bax ([2]; listed as JAK1 inhibitor): greatly reduced

Compound: IFN-γ: murine recombinant IFN-γ; R&D Systems; type II interferon, soluble cytokine
- Neuronal damage in cortical brain regions (NeuN) (C57BL/6 mice [3]; i.c.v. IFN-γ 200 U/mouse plus gp120 500 ng/mouse vs controls, IFN alone or gp120 alone): marked increase
- Phosphorylation of JAK1 (JAK1; [5]): stimulates phosphorylation
- LDH release [1, 6]: significantly increased
- Phosphorylation of STAT1 (STAT1; [5]): stimulates phosphorylation
- Ratio of Bcl-xL to Bax in brain homogenates (C57BL/6 mice [4]; i.c.v. IFN-γ 200 U/mouse with gp120 or Tat 500 ng/mouse): significant reduction
- Band density ratio of Bcl-xL to Bax [2, 6]: reduced

Compound: (-)-epigallocatechin-3-gallate [EGCG]
- Neuronal damage in cortical regions (NeuN) (C57BL/6 mice [3]; [7]): marked reduction; also recorded: protective
- JAK1 phosphorylation (JAK1; [8]): dose-dependent inhibition
- LDH release [1, 9]: decreased
- STAT1 phosphorylation (STAT1; [8]): dose-dependent inhibition
- Ratio of Bcl-xL to Bax in brain homogenates (C57BL/6 mice [4]; [7]): significant increases
- Ratio of Bcl-xL to Bax [2, 9]: increased
